Data on one compound can be found in ChEMBL document CHEMBL1208700, “Anibamine, a natural product CCR5 antagonist, as a novel lead for the development of anti-prostate cancer agents” (Bioorg Med Chem Lett, 2010).

A short description of data set [1]: Inhibition of human M12 cells invasion at 50 to 500 nM after 16 hrs. In kind it is functional.
For data set [2], the system named is M12. In words: Reversal of disorganized beta-1 integrin in human M12 cells at 1 uM after 8 days by confocal immunofluorescence microscopy. In kind it is functional, cell-based.
Data set [3] concerns M12. The data set is described as follows: Antiproliferative activity against human M12 cells after 72 hrs by WST-1 assay. It counts as functional, cell-based.
Data set [4] concerns M12. In words: Inhibition of human M12 cells invasion after 16 hrs. It counts as functional, cell-based.
The next data set relates to DU-145. In words: Antiproliferative activity against human DU145 cells after 72 hrs by WST-1 assay. In kind it is functional, cell-based. For orientation: Tetrazolium assays rely on reduction of a dye to a coloured formazan, in cell work by metabolically active cells.
Data set [5] is described as follows: Toxicity in sheep RBC assessed as hemolysis at 1 uM after 60 mins. In kind it is cell-based, Ovis aries. The note with it: erythrocyte, 1 h.
Data set [6] has as its system M12. The data set is described as follows: Reversal of disorganized alpha6 integrin in human M12 cells at 1 uM after 8 days by confocal immunofluorescence microscopy. It counts as functional, cell-based.
The nature of data set [7]: Reduction of vimentin gene expression in human M12 cells at 1 uM after 8 days by confocal immunofluorescence microscopy. In kind it is functional, cell-based.
Data set [8] has as its system M12. In words: Reversal of 3D IrECM gel-induced morphological changes in human M12 cells at 500 nM to 1 uM after 5 to 8 days by light microscopic analysis. In kind it is functional, cell-based.
Data set [9] in a line: Inhibition of human M12 cells adhesion at 10 to 100 nM after 24 hrs. In kind it is functional.
Another data set has as its system PC-3. In words: Antiproliferative activity against human PC3 cells after 72 hrs by WST-1 assay. It counts as functional, cell-based.
Data set [10] in a line: Antitumor activity against human M12 cells xenografted in athymic nude mouse assessed as reduction of tumor size at 0.3 mg/kg, iv administered once every fourth day for 16 days. In kind it is functional. Also on record: scale not given: the % may be the effect or the level left. A general note: In xenograft studies the graft and the host belong to different species.

Active and inactive are the calls of the source. No cut-off for these calls is given here.

In the case of `CCCCCCCC/C=C\c1c(C)c(/C=C\CCCCCCCC)c2[n+](c1C)CCC2.O=C([O-])C(F)(F)F` [ANIBAMINE], the entries for the “inhibition (INH)” value in data set [1] and in [9] were 42% and 26%, respectively. Besides, the outcome (with M12 [2]; in the data set on M12 [6]; in data set [7]; in the data set on M12 [8]) was Active. Moreover, the Activity result with M12 [3] is “Dose-dependent effect”; in the data set on DU-145, “Dose-dependent effect”; in data set [5], “Non-toxic”; with PC-3, “Dose-dependent effect”; in [10], 50%. Moreover, the inhibition entry in the data set on M12 [4] was “Dose-dependent effect”.
